Experimental data as given in patent US20260226084A1, “DUAL RAF AND TUBULIN INHIBITORS AND METHODS OF USE THEREOF” (Deciphera Pharmaceuticals, LLC, priority 2023, published 2026).
Like-named read-outs stand apart in the source and are kept apart here.

Tests used:
[1] = target: T1, B-Raf kinase (SEQ ID NO: 1) (Homo sapiens, UniProt P15056); assay: Biochemical Assay for B-Raf (coupled pyruvate kinase/lactate dehydrogenase assay); conditions: 1 mM ATP; read-out: BRAF (inhibition of biochemical activity, IC50)
T1 construct: GST (N); purchased Sigma

HCT-116 cells = assay: HCT-116 Cell Proliferation Assay; format: cell-based; conditions: Table 2, read-out: Inhibition of cell proliferation in HCT-116 (IC50 class)
Method: HCT-116 cells (catalog #CCL-247) are obtained from the American Type Culture Collect (ATCC, Manassas, VA). Briefly, cells are grown in McCoy's 5A supplemented with 10% characterized fetal bovine serum (Invitrogen, Carlsbad, CA) and 1% Penicillin/Streptomycin/L-Glutamine at 37° C., 5% CO2, and 95% humidity. Cells are expanded until reaching 70-95% confluency at which point they are subcultured or harvested for assay use. A serial dilution of test compound is dispensed into a 384-well black clear bottom plate in triplicate. 375 cells are added per well in 50 μL complete growth medium in the 384-well plate. Plates are incubated for 67 to 72 hours at 37° C., 5% CO2, and 95% humidity. At the end of the incubation, 40 μL of a […] solution of resazurin (Sigma, St. Louis, MO) in PBS is added to each well of the plate and plates are incubated for an additional 4 to 5 h at 37° C., 5% CO2, and 95% humidity. Plates are read on a Synergy2 or equivalent reader (Biotek, Winooski, VT) using an excitation of 540 nm and an emission of 600 nm. Data is analyzed using Prism software (Graphpad, San Diego, CA) to calculate IC50 values.

[2] = target: T2, C-Raf kinase (SEQ ID NO: 2) (Homo sapiens, UniProt P04049, Y340D/Y341D); assay: Biochemical Assay for C-Raf (coupled pyruvate kinase/lactate dehydrogenase assay); conditions: 1 mM ATP; read-out: CRAF (inhibition of biochemical activity, IC50)
T2 construct: C-Raf residues 306-end; Y340D, Y341D with; GST (N); purchased Sigma

Pa16c cells = assay: Pa16c Cell Proliferation Assay; format: cell-based; conditions: Table 2, read-out: Inhibition of cell proliferation in Pa16c (IC50 class)
Method: Pa16c cells are obtained from Dr. Channing Der, University of North Carolina at Chapel Hill. Briefly, cells are grown in Dulbecco's Modified Eagle Medium supplemented with 10% characterized fetal bovine serum (Invitrogen, Carlsbad, CA) and 1% Penicillin/Streptomycin/L-Glutamine at 37° C., 5% CO2, and 95% humidity. Cells are expanded until reaching 70-95% confluency at which point they are sub-cultured or harvested for assay use. A serial dilution of test compound is dispensed into a 384-well black clear bottom plate in triplicate. 750 cells are added per well in 50 μL complete growth medium in the 384-well plate. Plates are incubated for 67 to 72 h at 37° C., 5% CO2, and 95% humidity. At the end of the incubation, 40 μL of a 440 μM solution of resazurin (Sigma, St. Louis, MO) in PBS is added to each well of the plate and plates are incubated for an additional 18 to 24 hours at 37° C., 5% CO2, and 95% humidity. Plates are read on a Synergy2 or equivalent reader (Biotek, Winooski, VT) using an excitation of 540 nm and an emission of 600 nm. Data is analyzed using Prism software (Graphpad, San Diego, CA) to calculate IC50 values.

HPAF-II cells = assay: HPAF-II Cell Proliferation Assay; format: cell-based; conditions: HPAF-II cells, Table 2, read-out: Inhibition of cell proliferation in HPAF-II (IC50 class)
Method: HPAF-II cells (catalog #CRL-1997) are obtained from the American Type Culture Collect (ATCC, Manassas, VA). Briefly, cells are grown in Minimum Essential Media supplemented with 10% characterized fetal bovine serum (Invitrogen, Carlsbad, CA) and 1% Penicillin/Streptomycin/L-Glutamine at 37° C., 5% CO2, and 95% humidity. Cells are expanded until reaching 70-95% confluency at which point they are sub-cultured or harvested for assay use. A serial dilution of test compound is dispensed into a 384-well black clear bottom plate in triplicate. 750 cells are added per well in 50 μL complete growth medium in the 384-well plate. Plates are incubated for 115 to 120 hours at 37° C., 5% CO2, and 95% humidity. At the end of the incubation, 40 μL of a 440 μM solution of resazurin (Sigma, St. Louis, MO) in PBS is added to each well of the plate and plates are incubated for an additional 18 to 24 hours at 37° C., 5% CO2, and 95% humidity. Plates are read on a Synergy2 or equivalent reader (Biotek, Winooski, VT) using an excitation of 540 nm and an emission of 600 nm. Data is analyzed using Prism software (Graphpad, San Diego, CA) to calculate IC50 values.

MiaPaca-2 cells = assay: MiaPaca-2 Cell Proliferation Assay; format: cell-based; conditions: Table 2, read-out: Inhibition of cell proliferation in MiaPaca-2 (IC50 class)
Method: Miapaca-2 cells (catalog #CRL-1420) are obtained from the American Type Culture Collect (ATTC, Manassas, VA). Briefly, cells were grown in DMVEM supplemented with 10 characterized fetal bovine serum (Invitrogen, Carlsbad, CA), 2.5% New Zealand sourced horse serum and 1 Penicillin/Streptomycin/L-Glutamine at 37° C., 5 CO2, and 95% humidity. Cells are expanded until reaching 70-95% confluency at which point they are sub-cultured or harvested for assay use. A serial dilution of test compound is dispensed into a 96-well black clear bottom plate in triplicate. Three thousand cells are added per well in 200 μL complete growth medium in the 96-well plate. Plates are incubated for 67 to 72 h at 37° C., 5% CO2, and 95% humidity. At the end of the incubation, 40 μL of a 440 μM solution of resazurin (Sigma, St. Louis, MO) in PBS is added to each well of the plate and plates are incubated for an additional 5 to 6 h at 37° C., 5% CO2, and 95% humidity. Plates are read on a Synergy2 or equivalent reader (Biotek, Winooski VT) using an excitation of 540 nm and an emission of 600 nm. Data is analyzed using Prism software (Graphpad, San Diego, CA) to calculate IC50 values.

[3] = Homo sapiens, HCT-116, HCT-116 cells
[4] = Homo sapiens, MIA PaCa-2, MiaPaca-2 cells

T2 sequence (P04049 307-648 Y340D/Y341D): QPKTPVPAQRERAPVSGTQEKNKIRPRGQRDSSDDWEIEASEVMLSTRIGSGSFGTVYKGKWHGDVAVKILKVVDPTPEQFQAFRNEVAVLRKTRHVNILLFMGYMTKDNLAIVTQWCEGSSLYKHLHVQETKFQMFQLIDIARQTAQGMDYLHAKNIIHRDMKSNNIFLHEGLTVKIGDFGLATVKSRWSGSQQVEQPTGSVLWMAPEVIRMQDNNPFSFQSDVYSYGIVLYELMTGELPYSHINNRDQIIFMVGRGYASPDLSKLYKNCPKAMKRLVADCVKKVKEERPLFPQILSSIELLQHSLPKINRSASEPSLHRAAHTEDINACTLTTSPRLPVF
T1 sequence (P15056 416-766): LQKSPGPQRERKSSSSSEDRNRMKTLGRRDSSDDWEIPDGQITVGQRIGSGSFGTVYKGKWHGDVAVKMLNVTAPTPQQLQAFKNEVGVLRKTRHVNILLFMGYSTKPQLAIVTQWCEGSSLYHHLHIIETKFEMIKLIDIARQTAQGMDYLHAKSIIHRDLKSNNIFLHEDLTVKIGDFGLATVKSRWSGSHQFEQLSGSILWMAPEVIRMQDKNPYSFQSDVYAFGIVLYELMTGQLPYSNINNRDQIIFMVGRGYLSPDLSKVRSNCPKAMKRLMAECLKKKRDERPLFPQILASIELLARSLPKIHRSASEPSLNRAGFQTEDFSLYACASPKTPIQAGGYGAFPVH

Row | SMILES | IC50 [1] | IC50 (HCT-116 cells; [3]) | IC50 [2] | IC50 (MiaPaca-2 cells; [4]) | IC50 (Pa16c cells) | IC50 (HPAF-II cells; Homo sapiens, HPAF-II) | IC50 (HCT-116 cells; HCT-116 cells) | IC50 (HPAF-II cells) | IC50 (MiaPaca-2 cells; MiaPaca-2 cells)
1 | Cc1cc(-c2cc(NC(=O)c3cncc(C(C)(F)F)c3)ccc2C)cc(-c2ccnc(NC(=O)C3CC3)c2)n1 [Example 16] | < 100 nM | 100 to 500 nM | < 100 nM | 500 to 1000 nM | 1000 to 10000 nM | 1000 to 10000 nM |  |  | 
2 | Cc1ccc(NC(=N)c2cc(C3CC3)cnn2)cc1-c1ccnc(-c2ccnc(NC(=O)C3CC3)c2)c1 [Example 87] | < 100 nM | 1000 to 10000 nM | < 100 nM | 1000 to 10000 nM | 1000 to 10000 nM | 1000 to 10000 nM |  |  | 
3 | CC(=O)Nc1cc(-c2cncc(-c3cc(NC(=O)c4ccc(C(F)F)nc4)ccc3C)n2)ccn1 [Example 26] | 100 to 500 nM | 100 to 500 nM | 100 to 500 nM | 100 to 500 nM | 500 to 1000 nM | 500 to 1000 nM |  |  | 
4 | Cc1cc(-c2cc(NC(=O)c3cc(C(F)(F)F)cnn3)ccc2C)cc(-c2ccnc(NC(=O)C3CC3)c2)n1 [Example 18] | < 100 nM | 100 to 500 nM | < 100 nM | 100 to 500 nM | 100 to 500 nM | 100 to 500 nM |  |  | 
5 | COc1cnnc(C(=O)Nc2ccc(C)c(-c3ccnc(-c4ccnc(NC(=O)C5CC5)c4)c3)c2)c1 [Example 49] | < 100 nM | 100 to 500 nM | < 100 nM | 500 to 1000 nM | 1000 to 10000 nM | 100 to 500 nM |  |  | 
6 | Cc1cc(-c2cc(NC(=O)c3cncc(C(F)(F)F)c3)ccc2C)cc(-c2ccnc(NC(=O)C3CC3)c2)n1 [Example 81] | < 100 nM |  | < 100 nM |  | 1000 to 10000 nM |  | 100 to 500 nM | 1000 to 10000 nM | 1000 to 10000 nM
7 | Cc1ccc(NC(=O)c2cc(C(F)(F)F)cnn2)cc1-c1ccnc(-c2ccnc(NC(=O)C3CCN(C)C3)c2)c1 (stereo not drawn) [Example 51] | < 100 nM | 100 to 500 nM | < 100 nM | 100 to 500 nM | 500 to 1000 nM | 100 to 500 nM |  |  | 
8 | Cc1ccc(NC(=O)c2cncc(C(C)(C)C#N)c2)cc1-c1ccnc(-c2ccnc(NC(=O)C3CC3)c2)c1 [Example 105] | < 100 nM | < 100 nM | < 100 nM | 100 to 500 nM | 1000 to 10000 nM | 100 to 500 nM |  |  | 
9 | Cc1cc(F)c(NC(=O)c2cc(C(F)(F)F)cnn2)cc1-c1ccnc(-c2ccnc(NC(=O)C3CC3)c2)c1 [Example 60] | < 100 nM | 100 to 500 nM | < 100 nM | 1000 to 10000 nM | 1000 to 10000 nM | 1000 to 10000 nM |  |  | 
10 | COC(=O)Nc1cc(-c2ccnc(-c3cc(NC(=O)c4ccc(C(F)(F)F)nc4)ccc3C)n2)ccn1 [Example 6] | < 100 nM | 500 to 1000 nM | < 100 nM | 1000 to 10000 nM | 1000 to 10000 nM | 1000 to 10000 nM |  |  | 

Continued, in another order:

Row | IC50 [1] | IC50 (HCT-116 cells; [3]) | IC50 [2] | IC50 (MiaPaca-2 cells; [4]) | SMILES | IC50 (Pa16c cells) | IC50 (HPAF-II cells; Homo sapiens, HPAF-II) | IC50 (HCT-116 cells; HCT-116 cells) | IC50 (HPAF-II cells) | IC50 (MiaPaca-2 cells; MiaPaca-2 cells)
11 | 100 to 500 nM | < 100 nM | < 100 nM | < 100 nM | Cc1ccc(NC(=O)c2cc(C(F)(F)F)cnn2)cc1-c1ccnc(-c2ccnc(NCCO)c2)c1 [Example 129] | 100 to 500 nM | < 100 nM |  |  | 
12 | < 100 nM | 1000 to 10000 nM | < 100 nM | 1000 to 10000 nM | Cc1ccc(NC(=O)c2cc(P(C)(C)=O)cnn2)cc1-c1ccnc(-c2ccnc(NC(=O)C3CC3)c2)c1 [Example 111] | 1000 to 10000 nM | 1000 to 10000 nM |  |  | 
13 | 100 to 500 nM | 100 to 500 nM | < 100 nM | 100 to 500 nM | Cc1ccc(NC(=O)c2cc(C3CC3)cnn2)cc1-c1ccnc(-c2cnsc2)c1 [Example 136] | 100 to 500 nM | 100 to 500 nM |  |  | 
14 | 100 to 500 nM | 100 to 500 nM | 100 to 500 nM | 100 to 500 nM | Cc1ccc(NC(=O)c2cc(C(C)(F)F)cnn2)cc1-c1ccnc(-c2ccoc2)c1 [Example 149] | 100 to 500 nM | 100 to 500 nM |  |  | 
15 | 100 to 500 nM | 100 to 500 nM | < 100 nM | 100 to 500 nM | Cc1ccc(NC(=O)c2cnc(C(F)(F)F)nc2)cc1-c1cc(N[C@H](C)CO)nc(-c2cn[nH]c2)c1 [Example 133] | 1000 to 10000 nM | 1000 to 10000 nM |  |  | 
